Results reported in the NIST ThermoML archive (doi:10.1016/j.jct.2004.09.007).
± gives the expanded uncertainty stated by the source.

Experiments:
[1] = molar heat capacity at constant pressure; details: 101.3 kPa, Liquid, Large sample (1 g) DSC
[2] = 298.15 K; 101.33 kPa; Liquid; Pycnometric method
[3] = molar heat capacity at constant pressure; xn = mol fraction of the nth substance listed; details: 101.3 kPa, Liquid, Large sample (1 g) DSC, x2 = 0

CC(O)CCO (centres undefined) [1,3-butanediol]
[1]
Details | molar heat capacity at constant pressure [J/K/mol]
285.15 K | 211.74 ± 3.3
285.65 K | 212.17 ± 3.3
288.15 K | 213.57 ± 3.3
290.65 K | 215.06 ± 3.3
293.15 K | 216.58 ± 3.4
295.65 K | 218.04 ± 3.4
298.15 K | 219.62 ± 3.4
300.65 K | 221.14 ± 3.4
303.15 K | 222.8 ± 3.5
305.65 K | 224.37 ± 3.5
308.15 K | 226.07 ± 3.5
310.65 K | 227.65 ± 3.5
313.15 K | 229.24 ± 3.5
315.65 K | 230.82 ± 3.6
318.15 K | 232.6 ± 3.6
320.65 K | 234.14 ± 3.6
323.15 K | 235.83 ± 3.6
325.65 K | 237.52 ± 3.7
328.15 K | 239.08 ± 3.7
330.65 K | 240.59 ± 3.7
333.15 K | 242.28 ± 3.8
335.65 K | 243.86 ± 3.8
338.15 K | 245.11 ± 3.8
340.65 K | 247.19 ± 3.8
343.15 K | 248.62 ± 3.9
345.65 K | 250.13 ± 3.9
348.15 K | 251.66 ± 3.9
350.65 K | 253.24 ± 3.9
353.15 K | 254.86 ± 4

Details | mass density [kg/m3]
[2] | 1000.42 ± 1

CCCCO [butan-1-ol]
[1]
Details | molar heat capacity at constant pressure [J/K/mol]
285.15 K | 168.64 ± 2.6
285.65 K | 169.01 ± 2.6
288.15 K | 170.39 ± 2.6
290.65 K | 172 ± 2.7
293.15 K | 173.56 ± 2.7
295.65 K | 175.19 ± 2.7
298.15 K | 176.82 ± 2.7
300.65 K | 178.53 ± 2.8
303.15 K | 180.42 ± 2.8
305.65 K | 182.27 ± 2.8
308.15 K | 184.15 ± 2.9
310.65 K | 186.08 ± 2.9
313.15 K | 187.99 ± 2.9
315.65 K | 189.99 ± 2.9
318.15 K | 192.06 ± 3
320.65 K | 194.2 ± 3
323.15 K | 196.35 ± 3
325.65 K | 198.45 ± 3.1
328.15 K | 200.45 ± 3.1
330.65 K | 202.76 ± 3.1
333.15 K | 204.94 ± 3.2
335.65 K | 207.1 ± 3.2
338.15 K | 209.17 ± 3.2
340.65 K | 211.74 ± 3.3
343.15 K | 213.82 ± 3.3
345.65 K | 216.35 ± 3.4
348.15 K | 218.32 ± 3.4
350.65 K | 220.5 ± 3.4
353.15 K | 222.81 ± 3.5

Details | mass density [kg/m3]
[2] | 805.82 ± 1

CCCCO [butan-1-ol] + CC(O)CCO
[3]
Details | molar heat capacity at constant pressure [J/K/mol]
285.15 K | 168.64 ± 2.6
285.65 K | 169.01 ± 2.6
288.15 K | 170.39 ± 2.6
290.65 K | 172 ± 2.7
293.15 K | 173.56 ± 2.7
295.65 K | 175.19 ± 2.7
298.15 K | 176.82 ± 2.7
300.65 K | 178.53 ± 2.8
303.15 K | 180.42 ± 2.8
305.65 K | 182.27 ± 2.8
308.15 K | 184.15 ± 2.9
310.65 K | 186.08 ± 2.9
313.15 K | 187.99 ± 2.9
315.65 K | 189.99 ± 2.9
318.15 K | 192.06 ± 3
320.65 K | 194.2 ± 3
323.15 K | 196.35 ± 3
325.65 K | 198.45 ± 3.1
328.15 K | 200.45 ± 3.1
330.65 K | 202.76 ± 3.1
333.15 K | 204.94 ± 3.2
335.65 K | 207.1 ± 3.2
338.15 K | 209.17 ± 3.2
340.65 K | 211.74 ± 3.3
343.15 K | 213.82 ± 3.3
345.65 K | 216.35 ± 3.4
348.15 K | 218.32 ± 3.4
350.65 K | 220.5 ± 3.4
353.15 K | 222.81 ± 3.5
